Assay results from patent US6391882B1, “4,5,6 and 7-indole and indoline derivatitives, their preparation and use” (H. Lundbeck A/S, priority 1998, dated 2002).
Where a name gives a salt, the structure may show the parent alone.

SMILES | melting point
N#Cc1c[nH]c2cccc(N3CCN(CCc4c[nH]c5ccccc45)CC3)c12 (as salt: fumarate) [Compound 4m, 1-(3-Cyano-1H-indol-4-yl)-4-(2-(1H-indol-3-yl)ethyl)piperazine] | > 250 °C
N#Cc1c[nH]c2cccc(N3CCN(CCc4coc5ccccc45)CC3)c12 (as salt: oxalate) [Compound 4p, 1-(2-(3-Benzofuranyl)ethyl)-4-(3-cyano-1H-indol-4-yl)piperazine] | 221 to 223 °C
c1cc(N2CCN(Cc3coc4ccccc34)CC2)c2cc[nH]c2c1 (as salt: oxalate) [Compound 1b, 1-(3-Benzofuranylmethyl)-4-(1H-indol-4-yl)piperazine] | 226 to 228 °C
N#Cc1cccc2c(CCN3CCN(c4cccc5[nH]ccc45)CC3)c[nH]c12 (as salt: oxalate) [Compound 1l, 1-(2-(7-Cyano-1H-indol-3-yl)ethyl)-4-(1H-indol-4-yl)piperazine] | 241 to 243 °C
Brc1cccc2c(CCN3CCN(c4cccc5[nH]ccc45)CC3)c[nH]c12 (as salt: oxalate) [Compound 2i, 1-(2-(7-Bromo-1H-indol-3-yl)ethyl)-4-(1H-indol-4-yl)piperazine] | 149 to 151 °C
c1ccc(Cn2ccc3c(N4CCN(CCc5c[nH]c6ccccc56)CC4)cccc32)cc1 (as salt: fumarate) [Compound 2s, 1-(1-Benzyl-1H-indol-4-yl)-4-(2-(1H-indol-3-yl)ethyl)piperazine] | 188 to 190 °C
Fc1ccc2occ(CCCN3CCN(c4cccc5[nH]ccc45)CC3)c2c1 (as salt: hydrochloride) [Compound 1h, 1-(3-(5-Fluoro-3-benzofuranyl)-1-propyl)-4-(1H-indol-4-yl)piperazine] | 230 to 234 °C
Cc1cccc2occ(CCN3CCN(c4cccc5[nH]ccc45)CC3)c12 (as salt: oxalate) [Compound 4r, 1-(1H-Indol-4-yl)-4-(2-(4-methyl-3-benzofuranyl)ethyl)piperazine] | 204 to 206 °C
C=CCn1ccc2c(N3CCN(CCc4c[nH]c5ccc(F)cc45)CC3)cccc21 (as salt: fumarate) | 210 to 212 °C
Clc1cccc2c(CCN3CCN(c4cccc5[nH]ccc45)CC3)coc12 (as salt: oxalate) [Compound 4v, 1-(2-(7-Chloro-3-benzofuranyl)ethyl)-4-(1H-indol-4-yl)piperazine] | 216 to 218 °C
c1cc(N2CCN(CCc3n[nH]c4ccccc34)CC2)c2cc[nH]c2c1 (as salt: oxalate) [Compound 1j, 1-(2-(3-Indazolyl)ethyl)-4-(1H-indol-4-yl)piperazine] | 149 to 151 °C
Fc1ccc2occ(CCN3CCN(c4cccc5[nH]ccc45)CC3)c2c1 (as salt: oxalate) [Compound 1c, 1-(2-(5-Fluoro-3-benzofuranyl)ethyl)-4-(1H-indol-4-yl)piperazine] | 196 to 197 °C
Clc1cccc2[nH]cc(CCN3CCN(c4cccc5[nH]ccc45)CC3)c12 (as salt: oxalate) [Compound 2b, 1-(2-(4-Chloro-1H-indol-3-yl)ethyl)-4-(1H-indol-4-yl)piperazine] | 245 to 247 °C
Brc1ccc2[nH]cc(CCN3CCN(c4ccc5[nH]ccc5c4)CC3)c2c1 (as salt: fumarate) [Compound 2t, 1-(2-(5-Bromo-1H-indol-3-yl)ethyl)-4-(1H-indol-5-yl)piperazine] | 231 to 233 °C
C#CCn1ccc2c(N3CCN(CCc4c[nH]c5ccc(Br)cc45)CC3)cccc21 | 154 to 156 °C
Fc1ccc2[nH]cc(CCN3CCN(c4cccc5[nH]ccc45)CC3)c2c1 (as salt: fumarate) [Compound 2c, 1-(2-(5-Fluoro-1H-indol-3-yl)ethyl)-4-(1H-indol-4-yl)piperazine] | 212 to 215 °C
Fc1ccc2occ(CCCCN3CCN(c4cccc5[nH]ccc45)CC3)c2c1 (as salt: hydrochloride) [Compound 1d, 1-(4-(5-Fluoro-3-benzofuranyl)-1-butyl)-4-(1H-indol-4-yl)piperazine] | 241 to 244 °C
Fc1ccc2occ(CN3CCN(c4cccc5[nH]ccc45)CC3)c2c1 (as salt: hydrochloride) [Compound 4l, 1-(5-Fluoro-3-benzofuranylmethyl)-4-(1H-indol-4-4-yl)piperazine] | 238 to 240 °C
Fc1ccc2occ(CCCN3CC=C(c4cccc5[nH]ccc45)CC3)c2c1 (as salt: fumarate) [Compound 4s, 1-(3-(5-Fluoro-3-benzofuranyl)-1-propyl)-4-(1H-indol-4-yl)-1,2,3,6-tetrahydropyridine] | 183 to 185 °C
Clc1ccc2occ(CCN3CCN(c4cccc5[nH]ccc45)CC3)c2c1 (as salt: oxalate) [Compound 4t, 1-(2-(5-Chloro-3-benzofuranyl)ethyl)-4-(1H-indol-4-yl)piperazine] | 200 to 202 °C

SMILES | melting point
Clc1ccc2c(CCN3CC=C(c4cccc5[nH]ccc45)CC3)c[nH]c2c1 (as salt: fumarate) [Compound 2g, 1-(2-(6-Chloro-1H-indol-3-yl)ethyl)-4-(1H-indol-4-yl)-1,2,3,6-tetrahydropyridine] | 225 to 226 °C
COC(=O)c1cc(N2CCN(CCc3coc4ccc(F)cc34)CC2)c2cc[nH]c2c1 (as salt: oxalate) [Compound 4h, 1-(2-(5-Fluoro-3-benzofuranyl)ethyl)-4-(6-methoxycarbonyl-1H-indol-4-yl)piperazine] | 227 to 228 °C
C#CCn1ccc2c(N3CCN(CCc4c[nH]c5ccccc45)CC3)cccc21 (as salt: fumarate) | 193 to 195 °C
Cc1ccc2occ(CCN3CCN(c4cccc5[nH]ccc45)CC3)c2c1 (as salt: hydrochloride) [Compound 4q, 1-(1H-Indol-4-yl)-4-(2-(5-methyl-3-benzofuranyl)ethyl)piperazine] | 258 to 260 °C
N#Cc1c[nH]c2cccc(N3CCN(CCc4c[nH]c5cccc(Cl)c45)CC3)c12 (as salt: fumarate) [Compound 4x, 1-(2-(4-Chloro-1H-indol-3-yl)ethyl)-4-(3-cyano-1H-indol-4-yl)piperazine] | > 250 °C
C#CCn1ccc2c(N3CCN(CCc4c[nH]c5ccc(F)cc45)CC3)cccc21 | 153 to 155 °C
c1ccc2c(CCCN3CCN(c4cccc5[nH]ccc45)CC3)c[nH]c2c1 (as salt: oxalate) [Compound 1f, 1-(3-(1H-indol-3-yl)-1-propyl)-4-(1H-indol-4-yl)piperazine] | 198 to 204 °C
Cc1oc2c(F)c(F)c(F)c(F)c2c1CCN1CCN(c2cccc3[nH]ccc23)CC1 (as salt: hydrochloride) [Compound 1i, 1-(2-(2-Methyl-4,5,6,7-tetrafluoro-3-benzofuranyl)ethyl)-4-(1H-indol-4-yl)piperaziine] | 181 to 187 °C
c1ccc2c(CCN3CCN(c4cccc5[nH]ccc45)CC3)c[nH]c2c1 (as salt: oxalate) [Compound 1e, 1-(2-(1H-indol-3-yl)ethyl)-4-(1H-indol-4-yl)piperazine] | 167 to 169 °C
Clc1ccc2[nH]cc(CCN3CCN(c4ccc5[nH]ccc5c4)CC3)c2c1 (as salt: fumarate) [Compound 2u, 1-(2-(5-Chloro-1H-indol-3-yl)ethyl)-4-(1H-indol-5-yl)piperazine] | 232 to 234 °C
Fc1ccc2[nH]cc(CCN3CC=C(c4cccc5[nH]ccc45)CC3)c2c1 (as salt: fumarate) [Compound 2h, 1-(2-(5-Fluoro-1H-indol-3-yl)ethyl)-4-(1H-indol-4-yl)-1,2,3,6-tetrahydropyridine] | 204 to 206 °C
Fc1ccc2[nH]cc(CCN3CCN(c4cccc5c4ccn5Cc4ccccc4)CC3)c2c1 (as salt: fumarate) [Compound 2m, 1-(1-Benzyl-1H-indol-4-yl)-4-(2-(5-fluoro-1H-indol-3-yl)ethyl)piperazine] | 178 to 180 °C
Cc1ccc2c(CCN3CCN(c4cccc5[nH]ccc45)CC3)coc2c1 (as salt: oxalate) [Compound 4u, 1-(1H-Indol-4-yl)-4-(2-(6-methyl-3-benzofuranyl)ethyl)piperazine] | 190 to 192 °C
Clc1ccc2c(CCN3CCN(c4cccc5[nH]ccc45)CC3)n[nH]c2c1 (as salt: oxalate) [Compound 1k, 1-(2-(6-Chloro-3-indazolyl)ethyl)-4-(1H-indol-4-yl)piperazine] | 255 to 258 °C
c1ccc2c(CCCCN3CCN(c4cccc5[nH]ccc45)CC3)c[nH]c2c1 (as salt: oxalate) [Compound 1g, 1-(4-(1H-indol-3-yl)-1-butyl)-4-(1H-indol-4yl)piperazine] | 189 to 193 °C
N#Cc1c[nH]c2cccc(N3CCN(CCc4c[nH]c5cc(Cl)ccc45)CC3)c12 (as salt: fumarate) [Compound 4o, 1-(2-(6-Chloro-1H-indol-3-yl)ethyl)-4-(3-cyano-1H-indol-4-yl)piperazine] | 234 to 236 °C
COC(=O)c1cc(N2CCN(CCc3c[nH]c4cc(Cl)ccc34)CC2)c2cc[nH]c2c1 (as salt: oxalate) [Compound 4g, 1-(2-(6-Chloro-1H-indol-3-yl)ethyl)-4-(6-methoxycarbonyl-1-H-indol-4-yl)piperazine] | 228 to 230 °C
N#Cc1c[nH]c2cccc(N3CCN(CCc4coc5ccc(F)cc45)CC3)c12 (as salt: fumarate) [Compound 4n, 1-(3-Cyano-1H-indol-4-yl)-4-(2-(5-fluoro-3-benzofuranyl)ethyl)piperazine] | 235 to 237 °C
C#CCn1ccc2c(N3CCN(CCc4c[nH]c5cc(Cl)ccc45)CC3)cccc21 | 197 to 199 °C
COC(=O)c1cc(N2CCN(CCc3c[nH]c4ccccc34)CC2)c2cc[nH]c2c1 (as salt: oxalate) [Compound 4f, 1-(2-(1H-indol-3-yl)ethyl)-4-(6-methoxycarbonyl-1H-indol-4-yl)piperazine] | 213 to 216 °C
